{
  "source": "patent US5750139A",
  "about": "(priority 1994, dated 1998)",
  "key": {"[1]": {"assay": "intra-individual pharmacokinetics, TDS versus oral tablet, one healthy volunteer", "format": "in vivo, human", "description": "For better comparability, some pharmacokinetic preliminary experiments were carried out on one and the same healthy volunteer (i.e. intra-individually)."}, "[2]": {"assay": "GCP-complying pharmacokinetic study of TDS with 14 healthy volunteers", "format": "in vivo, human"}, "[3]": {"conditions": "cited from earlier work"}, "[4]": {"system": "rat skin versus human skin", "conditions": "cited from earlier work"}, "[5]": {"assay": "diffusion/dialysis of benzopyrone from formulation through cellulose membrane (layer thickness, pore size, viscosity)", "format": "physicochemical", "source_text": "When the same formulation was used, for example, the diffusion rate increased only by a factor of 1.6 when the pore volume was increased from 20 kD to 100 kD."}, "[6]": {"assay": "kinetics of active ingredient diffusion through the membrane in vitro", "format": "physicochemical", "description": "The TDS to be tested were preselected by means of in vitro measurements of the dialysis of benzopyrone from the TDS investigated. For this purpose, the TDS available was stuck, on the side facing the skin, i.e. the membrane side, by means of the adhesive layer, in a dialysis apparatus and was dialyzed against an excess of a solution of polyethylene glycol 400 or against an albumin or saline solution for at least 24 h. […] The half-lives for a 50% and 95% diffusion yield (t/2 50% and t/2 95%, respectively) were calculated from the linear part of the dialysis curves. For example, three selected formulations gave the following half-lives (Table 1): […]"}, "inflamed target tissues": {"system": "inflamed target tissues", "conditions": "in vivo"}, "rat skin": {"system": "rat skin", "conditions": "cited from earlier work"}, "[7]": {"assay": "96 h application of a TDS: bioavailability, blood levels of benzopyrone during application and after removal"}, "[8]": {"conditions": "human, in vivo, topical or ocular"}, "[9]": {"conditions": "human, blood, topical or ocular, 200 mg"}},
  "note": "Where two headings read alike, the source gives them in different places.",
  "data": [
    {"smiles": "O=c1ccc2ccc(O)cc2o1", "note": "[7-hydroxybenzopyrone]", "values": [
      {"measurement": "blood levels of II, TDS lower than after oral dose", "setting": "[1]; TDS versus oral", "value": "6-10 times"},
      {"measurement": "maximum blood concentrations of II, TDS versus oral, based on the same absorbed dose", "setting": "[1]; TDS versus oral, same absorbed dose", "value": "approximately comparable"},
      {"measurement": "blood levels of 7-hydroxybenzopyrone, oral compared with transdermal", "setting": "[1]; oral versus transdermal", "value": "substantially higher"},
      {"measurement": "decrease of blood levels of 7-hydroxybenzopyrone", "setting": "[2]; after removal of the TDS", "value": "decreased rapidly"},
      {"measurement": "glucuronidation step faster than preceding oxidation reaction", "setting": "[3]; liver, coupled metabolic conversion", "value": "about 3.5 times"}
    ]},
    {"smiles": "O=C(O)[C@H]1O[C@@H](Oc2ccc3ccc(=O)oc3c2)[C@H](O)[C@@H](O)[C@@H]1O", "note": "[glucuronide (III)]", "values": [
      {"measurement": "pharmacological activity", "setting": "[3]; in vivo", "value": "pharmacologically inactive"}
    ]},
    {"smiles": "COC1=CC(=O)C[C@@H](C)[C@]12Oc1c(Cl)c(OC)cc(OC)c1C2=O", "note": "[griseofulvin]", "values": [
      {"measurement": "penetration of rat skin more readily than human skin", "setting": "[4]", "value": 14, "unit": "times"}
    ]},
    {"smiles": "CC1(C)C(C=C(Cl)Cl)C1C(=O)OC(C#N)c1cccc(Oc2ccccc2)c1", "note": "(centres unmarked) [cypermethrin]", "values": [
      {"measurement": "penetration of rat skin more readily than human skin", "setting": "[4]", "value": 20, "unit": "times"}
    ]},
    {"smiles": "O=c1ccc2ccccc2o1", "note": "[benzopyrone, 5,6-benzo-alpha-pyrone]", "values": [
      {"measurement": "dialyzable amount of benzopyrone with increasing layer thickness", "setting": "[5]; 20% formulation, cellulose membrane 20 kD, 2.5 cm^2", "value": "increases with increasing layer thickness until the saturation limit of the control membrane is reached and then remains constant"},
      {"measurement": "Amount of benzopyrone diffusing within 8 h", "setting": "[5]; layer thickness 0.1 mm, 20% formulation, cellulose membrane 20 kD, 2.5 cm^2", "value": 8, "unit": "mg"},
      {"measurement": "Amount of benzopyrone diffusing within 8 h", "setting": "[5]; layer thickness 0.2 mm, 20% formulation, cellulose membrane 20 kD, 2.5 cm^2", "value": 14, "unit": "mg"},
      {"measurement": "Amount of benzopyrone diffusing within 8 h", "setting": "[5]; layer thickness 0.4 mm, 20% formulation, cellulose membrane 20 kD, 2.5 cm^2", "value": 14, "unit": "mg"},
      {"measurement": "rate of dialysis of the benzopyrone", "setting": "[5]; on increasing the viscosity of the formulation", "value": "considerably reduced"},
      {"measurement": "factor of increase of the diffusion rate", "setting": "[5]; pore volume increased from 20 kD to 100 kD, same formulation", "value": 1.6},
      {"measurement": "blood levels of benzopyrone (I), transdermal higher than after oral administration", "setting": "[1]; TDS versus oral", "value": 10, "unit": "times"},
      {"measurement": "maximum blood levels of (I), TDS higher than after oral, based on same dose absorbed per day", "setting": "[1]; human, in vivo, po", "value": 57, "unit": "times"},
      {"measurement": "Tmax", "setting": "[1]; human, in vivo, po, t max of benzopyrone (I)", "value": 3, "unit": "h"},
      {"measurement": "bioavailability at 48 h", "setting": "[1]; [8]", "value": 35, "unit": "%"},
      {"measurement": "concentration at 4 h", "setting": "[2]; human, blood, topical or ocular, 4 h after removal of the TDS (200 mg)", "value": 4.96, "unit": "ng/mL"},
      {"measurement": "concentration at 3 h", "setting": "[2]; human, blood, topical or ocular, single TDS 200 mg, application time 3 h", "value": 23.4, "unit": "ng/mL"},
      {"measurement": "concentration at 24 h", "setting": "[2]; human, blood, topical or ocular, single TDS 200 mg, application time 24 h", "value": 27.3, "unit": "ng/mL"},
      {"measurement": "time to steady state of blood benzopyrone level", "setting": "[2]; single TDS 200 mg", "value": 3, "unit": "h"},
      {"measurement": "kinetics of active ingredient diffusion through the membrane", "setting": "[6]", "value": "linear kinetics"},
      {"measurement": "accumulation in tissue", "setting": "inflamed target tissues", "value": "preferably accumulates in inflamed target tissues"},
      {"measurement": "unabsorbed proportion of benzopyrone after 12 hours", "setting": "rat skin; 1 g of 5% ointment over 30 cm^2, rat 1", "value": 1.95, "unit": "percent by weight"},
      {"measurement": "unabsorbed proportion of benzopyrone after 12 hours", "setting": "rat skin; 1 g of 5% ointment over 30 cm^2, rat 2", "value": 13.24, "unit": "percent by weight"},
      {"measurement": "unabsorbed proportion of benzopyrone after 12 hours", "setting": "rat skin; 1 g of 5% ointment over 30 cm^2, rat 3", "value": 42.8, "unit": "percent by weight"},
      {"measurement": "first pass metabolism in the liver", "setting": "[3]; oral application", "value": "virtually quantitative"},
      {"measurement": "unchanged benzopyrone entering the circulation from the liver", "setting": "[3]; oral application", "value": "virtually no unchanged benzopyrone"},
      {"measurement": "active ingredient release over total application time", "setting": "[7]; 96 h application", "value": "linear"},
      {"measurement": "release of benzopyrone over 96 h", "setting": "[7]; TDS worn 4 days", "value": "takes place in a constant manner"},
      {"measurement": "concentration at 3 h", "setting": "[7]; [9]", "value": 2.4, "unit": "ng/mL"},
      {"measurement": "concentration at 6 h", "setting": "[7]; [9]", "value": 0.8, "unit": "ng/mL"},
      {"measurement": "concentration at 48 h", "setting": "[7]; [9]", "value": 5.5, "unit": "ng/mL"},
      {"measurement": "concentration at 72 h", "setting": "[7]; [9]", "value": 6.1, "unit": "ng/mL"},
      {"measurement": "concentration at 82 h", "setting": "[7]; [9]", "value": 8.7, "unit": "ng/mL"},
      {"measurement": "concentration at 96 h", "setting": "[7]; [9]", "value": 6.6, "unit": "ng/mL"},
      {"measurement": "bioavailability at 96 h", "setting": "[7]; [8]", "value": 70, "unit": "%"}
    ]}
  ]
}
